According to paper PMC4798913 (ACS chemical biology, 2015):

Columns and labels:
PRMT7 = biological target: T1, PRMT7 (Homo sapiens, UniProt Q9NVM4); assay: PRMT biochemical scintillation proximity assay; conditions: for inhibition of type III PRMT (PRMT7): concentration not given
T1 sequence (Q9NVM4 1-692): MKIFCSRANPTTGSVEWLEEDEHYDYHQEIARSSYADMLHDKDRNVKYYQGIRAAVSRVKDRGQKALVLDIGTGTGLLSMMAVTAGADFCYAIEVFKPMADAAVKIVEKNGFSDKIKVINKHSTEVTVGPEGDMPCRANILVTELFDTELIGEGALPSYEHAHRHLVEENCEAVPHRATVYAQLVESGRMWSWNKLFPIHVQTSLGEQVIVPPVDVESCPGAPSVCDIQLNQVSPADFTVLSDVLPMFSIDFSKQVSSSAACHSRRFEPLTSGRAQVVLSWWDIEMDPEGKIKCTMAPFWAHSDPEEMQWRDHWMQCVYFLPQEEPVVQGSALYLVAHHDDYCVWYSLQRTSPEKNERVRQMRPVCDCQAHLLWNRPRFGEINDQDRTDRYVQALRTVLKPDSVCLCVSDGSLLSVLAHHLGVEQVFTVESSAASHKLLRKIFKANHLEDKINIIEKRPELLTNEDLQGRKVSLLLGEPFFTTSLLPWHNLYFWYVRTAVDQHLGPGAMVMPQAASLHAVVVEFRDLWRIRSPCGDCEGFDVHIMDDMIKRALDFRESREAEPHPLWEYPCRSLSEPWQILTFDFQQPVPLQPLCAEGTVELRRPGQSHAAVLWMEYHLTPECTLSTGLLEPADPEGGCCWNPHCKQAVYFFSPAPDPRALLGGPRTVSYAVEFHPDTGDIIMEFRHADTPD

PRMT9 = biological target: T2, PRMT9 (Homo sapiens, UniProt Q6P2P2); assay: PRMT biochemical scintillation proximity assay; conditions: for inhibition of type II PRMT (PRMT9): concentration not given
T2 sequence (Q6P2P2 1-845): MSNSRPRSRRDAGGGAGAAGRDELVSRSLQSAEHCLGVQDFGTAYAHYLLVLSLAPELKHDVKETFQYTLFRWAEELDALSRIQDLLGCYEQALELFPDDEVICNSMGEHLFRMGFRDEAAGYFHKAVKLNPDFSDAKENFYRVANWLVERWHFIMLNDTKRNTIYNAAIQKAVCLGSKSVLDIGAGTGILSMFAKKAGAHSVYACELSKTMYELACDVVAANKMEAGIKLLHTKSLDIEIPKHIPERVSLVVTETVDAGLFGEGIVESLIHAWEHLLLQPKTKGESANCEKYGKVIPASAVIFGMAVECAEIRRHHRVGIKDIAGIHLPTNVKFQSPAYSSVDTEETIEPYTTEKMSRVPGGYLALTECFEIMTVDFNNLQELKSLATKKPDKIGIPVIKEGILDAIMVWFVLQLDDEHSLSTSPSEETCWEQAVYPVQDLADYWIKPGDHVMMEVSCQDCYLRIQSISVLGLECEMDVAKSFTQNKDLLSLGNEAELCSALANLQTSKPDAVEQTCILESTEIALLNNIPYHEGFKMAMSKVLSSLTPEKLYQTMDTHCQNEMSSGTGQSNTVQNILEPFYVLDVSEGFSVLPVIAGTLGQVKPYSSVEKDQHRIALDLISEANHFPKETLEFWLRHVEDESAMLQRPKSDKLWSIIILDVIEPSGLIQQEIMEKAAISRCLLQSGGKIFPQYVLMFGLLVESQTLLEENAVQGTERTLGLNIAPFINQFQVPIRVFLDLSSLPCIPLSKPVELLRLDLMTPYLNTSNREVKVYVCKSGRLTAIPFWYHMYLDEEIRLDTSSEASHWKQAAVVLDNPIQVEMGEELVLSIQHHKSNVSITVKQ

PRMT5 = PRMT5 (Homo sapiens, UniProt O14744); assay: PRMT biochemical scintillation proximity assay; conditions: for inhibition of type II PRMT (PRMT5): concentration not given
Chain of PRMT5 (O14744 whole entry): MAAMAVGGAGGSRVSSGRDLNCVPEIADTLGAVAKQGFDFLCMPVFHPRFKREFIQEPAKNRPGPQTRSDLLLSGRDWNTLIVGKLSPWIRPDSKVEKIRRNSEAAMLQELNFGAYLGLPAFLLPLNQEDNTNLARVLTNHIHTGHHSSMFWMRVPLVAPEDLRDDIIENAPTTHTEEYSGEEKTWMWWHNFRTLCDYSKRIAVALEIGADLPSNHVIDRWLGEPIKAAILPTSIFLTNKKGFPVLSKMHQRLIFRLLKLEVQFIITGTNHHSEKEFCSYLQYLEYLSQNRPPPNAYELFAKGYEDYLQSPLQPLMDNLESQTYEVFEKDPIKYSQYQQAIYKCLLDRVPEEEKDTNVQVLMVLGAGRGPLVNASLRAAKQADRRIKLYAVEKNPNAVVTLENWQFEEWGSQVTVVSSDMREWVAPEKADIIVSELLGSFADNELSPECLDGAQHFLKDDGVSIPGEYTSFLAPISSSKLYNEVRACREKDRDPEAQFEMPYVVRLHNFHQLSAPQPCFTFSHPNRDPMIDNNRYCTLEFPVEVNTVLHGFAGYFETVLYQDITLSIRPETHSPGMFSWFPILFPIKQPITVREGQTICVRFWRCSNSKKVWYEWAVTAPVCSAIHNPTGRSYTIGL
Chain of PRMT5 (Q9BQA1 whole entry partner): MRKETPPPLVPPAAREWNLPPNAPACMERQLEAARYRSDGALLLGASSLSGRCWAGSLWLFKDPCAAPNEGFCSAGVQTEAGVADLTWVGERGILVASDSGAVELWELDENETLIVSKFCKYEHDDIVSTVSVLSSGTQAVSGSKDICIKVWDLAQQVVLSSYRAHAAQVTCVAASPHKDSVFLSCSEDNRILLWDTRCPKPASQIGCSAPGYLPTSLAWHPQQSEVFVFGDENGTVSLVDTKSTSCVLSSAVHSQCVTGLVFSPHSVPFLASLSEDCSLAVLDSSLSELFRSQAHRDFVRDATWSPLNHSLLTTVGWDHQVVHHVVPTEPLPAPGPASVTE

PRMT1 [1] = biological target: T3, PRMT1 (Homo sapiens, UniProt Q99873); assay: Cellular PRMT1 assay; format: cell-based; conditions: MCF7 cells, 48 h
T3 sequence (Q99873 whole entry): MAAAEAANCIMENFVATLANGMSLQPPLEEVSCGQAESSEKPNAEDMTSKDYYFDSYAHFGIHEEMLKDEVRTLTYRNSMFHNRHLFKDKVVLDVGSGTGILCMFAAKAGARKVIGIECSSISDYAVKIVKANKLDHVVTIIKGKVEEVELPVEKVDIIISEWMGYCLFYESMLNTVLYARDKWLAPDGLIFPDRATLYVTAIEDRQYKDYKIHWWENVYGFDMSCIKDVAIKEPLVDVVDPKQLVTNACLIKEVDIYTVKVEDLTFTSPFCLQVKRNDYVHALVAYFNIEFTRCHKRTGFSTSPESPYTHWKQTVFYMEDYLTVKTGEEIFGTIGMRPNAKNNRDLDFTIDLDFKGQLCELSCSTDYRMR

PRMT1 [2] = biological target: T3, PRMT1; assay: PRMT biochemical scintillation proximity assay; conditions: read-out: IC50 PRMT1; substrate at Km; triplicate, Mean ± SD; NI: no inhibition
PRMT4 = biological target: T4, PRMT4 (Homo sapiens, UniProt Q86X55); assay: PRMT biochemical scintillation proximity assay; conditions: read-out: IC50 PRMT4; substrate at Km; triplicate, Mean ± SD; NI: no inhibition
T4 sequence (Q86X55 1-608): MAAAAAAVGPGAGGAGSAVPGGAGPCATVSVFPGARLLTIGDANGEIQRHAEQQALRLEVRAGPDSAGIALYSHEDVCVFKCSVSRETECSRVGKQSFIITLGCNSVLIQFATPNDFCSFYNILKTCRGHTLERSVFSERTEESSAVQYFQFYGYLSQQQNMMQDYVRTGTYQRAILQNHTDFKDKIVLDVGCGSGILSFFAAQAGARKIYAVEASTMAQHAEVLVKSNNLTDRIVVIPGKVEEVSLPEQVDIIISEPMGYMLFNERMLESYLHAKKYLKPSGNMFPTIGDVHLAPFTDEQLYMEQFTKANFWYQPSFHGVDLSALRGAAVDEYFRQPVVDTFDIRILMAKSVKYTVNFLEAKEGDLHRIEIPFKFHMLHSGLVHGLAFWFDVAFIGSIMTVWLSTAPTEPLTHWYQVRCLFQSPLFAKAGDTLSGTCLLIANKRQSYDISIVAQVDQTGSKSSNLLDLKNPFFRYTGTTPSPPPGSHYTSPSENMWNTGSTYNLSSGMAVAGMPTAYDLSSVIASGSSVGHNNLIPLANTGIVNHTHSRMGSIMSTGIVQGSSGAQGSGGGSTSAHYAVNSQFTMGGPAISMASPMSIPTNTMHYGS

PRMT3 = PRMT3 (Homo sapiens, UniProt O60678); assay: PRMT biochemical scintillation proximity assay; conditions: for IC50: read-out: IC50 PRMT3, substrate at Km, triplicate, Mean ± SD, NI: no inhibition
Chain of PRMT3 (O60678 whole entry): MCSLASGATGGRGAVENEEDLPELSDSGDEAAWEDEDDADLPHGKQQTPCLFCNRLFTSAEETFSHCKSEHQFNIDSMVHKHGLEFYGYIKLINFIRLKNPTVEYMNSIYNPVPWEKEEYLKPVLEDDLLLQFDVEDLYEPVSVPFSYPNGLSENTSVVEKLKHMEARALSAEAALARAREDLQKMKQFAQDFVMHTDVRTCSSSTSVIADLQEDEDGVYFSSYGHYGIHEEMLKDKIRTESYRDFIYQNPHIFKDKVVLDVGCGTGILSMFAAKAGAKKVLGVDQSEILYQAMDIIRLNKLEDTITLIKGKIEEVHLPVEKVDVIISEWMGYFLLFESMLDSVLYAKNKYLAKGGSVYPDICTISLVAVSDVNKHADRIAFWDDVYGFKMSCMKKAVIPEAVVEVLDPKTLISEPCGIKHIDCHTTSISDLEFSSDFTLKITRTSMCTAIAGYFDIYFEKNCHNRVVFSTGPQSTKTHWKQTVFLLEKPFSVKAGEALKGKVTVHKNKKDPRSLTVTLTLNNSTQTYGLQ

MCF7 cells = assay: Global arginine methylation Western blot; format: cell-based; conditions: two days (48 h)
HEK293 cells [3] = assay: Cell growth assay; format: cell-based; conditions: 1 μM, 4-day and long-term (10 days) treatment
HEK293 cells [4] = assay: Global arginine methylation Western blot; conditions: two days
[5] = system: eight different cell lines; assay: Cell growth assay; format: cell-based; conditions: 96 h treatment
[6] = system: 25 PKMTs and DNMTs, and 3 histone lysine demethylases; assay: Selectivity panel of methyltransferases and demethylases; format: biochemical; conditions: up to 10 μM (tested at 1 μM and 10 μM)
[7] = system: 9 methyllysine or methylarginine reader proteins; assay: DSF or DSLS binding to reader proteins
PRMT6 = PRMT6 (Homo sapiens, UniProt Q96LA8); conditions: 100 μM SAM; PRMT6 alone Tm = 52 °C
Chain of PRMT6 (Q96LA8 whole entry): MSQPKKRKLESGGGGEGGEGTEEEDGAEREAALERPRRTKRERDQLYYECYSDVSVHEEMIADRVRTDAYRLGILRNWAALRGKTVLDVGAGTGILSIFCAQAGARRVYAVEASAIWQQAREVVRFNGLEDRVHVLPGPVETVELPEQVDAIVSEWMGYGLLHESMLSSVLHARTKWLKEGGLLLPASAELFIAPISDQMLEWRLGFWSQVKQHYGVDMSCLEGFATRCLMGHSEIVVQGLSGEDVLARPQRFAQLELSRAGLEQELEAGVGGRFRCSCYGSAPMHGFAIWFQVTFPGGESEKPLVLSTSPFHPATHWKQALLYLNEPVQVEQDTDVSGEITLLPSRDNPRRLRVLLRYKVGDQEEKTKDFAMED

Structure (SMILES) | effect on cellular levels of H4R3me2a (PRMT1 [1]) | IC50 (PRMT1 [2]) | IC50 (PRMT4) | IC50 (PRMT3) | global levels of arginine asymmetric dimethylation (Rme2a) (MCF7 cells) | global levels of arginine monomethylation (Rme1) (MCF7 cells) | global levels of arginine symmetric dimethylation (Rme2s) (MCF7 cells) | further results
CN(CCN)Cc1n[nH]nc1-c1cccc(C(F)(F)F)c1 [Compound 1] |  |  |  |  |  |  |  | inhibition of type III PRMT (PRMT7) (PRMT7): did not inhibit; inhibition of type II PRMT (PRMT9) (PRMT9): did not inhibit; inhibition of type II PRMT (PRMT5) (PRMT5): did not inhibit
CN(CCN)Cc1c[nH]cc1-c1cccc(C(F)(F)F)c1 [Compound 2] |  |  |  |  |  |  |  | inhibition of type III PRMT (PRMT7) (PRMT7): did not inhibit; inhibition of type II PRMT (PRMT9) (PRMT9): did not inhibit; inhibition of type II PRMT (PRMT5) (PRMT5): did not inhibit
CC(C)Oc1ccc(-c2c[nH]cc2CN(C)CC(N)=O)cc1 [Compound 5] | did not decrease | > 10 µM | > 10 µM | > 10 µM | did not change | did not change | did not change | 
CC(C)Oc1ccc(-c2c[nH]cc2C(=O)N(C)CCN)cc1 [Compound 6] | did not decrease | > 10 µM | > 10 µM | > 10 µM | did not change | did not change | did not change | 
CC(C)Oc1ccc(-c2c[nH]cc2CN(C)CCN)cc1 [MS023] |  |  |  |  | significant decrease | increase | increase | effect on cell growth (HEK293 cells [3]): greatly affecting cell growth; inhibition of PRMT7 (type III) (PRMT7; concentrations up to 10 μM): did not inhibit; global levels of arginine asymmetric dimethylation (Rme2a) (HEK293 cells [4]): significant decrease; global levels of arginine monomethylation (Rme1) (HEK293 cells [4]): increase; global levels of arginine symmetric dimethylation (Rme2s) (HEK293 cells [4]): increase; effect on cell growth ([5]; concentrations up to 1 μM, all lines except HEK293): did not significantly impact cell growth; effect on cell growth ([5]; higher concentrations (e.g., 10 μM, 50 μM)): decreased cell growth in most of tested cell lines; pattern of inhibition (MOA) for PRMT3 (PRMT3; IC50 at different SAM and peptide concentrations): noncompetitive with the peptide substrate but uncompetitive with the cofactor SAM; inhibition of PRMT9 (type II) (PRMT9; concentrations up to 10 μM): did not inhibit; inhibition of 25 PKMTs and DNMTs and 3 histone lysine demethylases [6]: did not inhibit; binding to 9 methyllysine or methylarginine reader proteins [7]: did not show binding; inhibition of PRMT5 (type II) (PRMT5; concentrations up to 10 μM): did not inhibit
CC(C)Oc1ccc(-c2c[nH]cc2CN(C)CCO)cc1 [MS094] | did not decrease | > 10 µM | > 10 µM | > 10 µM | did not change | did not change | did not change | 
C[S+](CC[C@H](N)C(=O)O)C[C@H]1O[C@@H](n2cnc3c(N)ncnc32)[C@H](O)[C@@H]1O (stereo partly drawn) [SAM, S-5′-adenosyl-L-methionine] |  |  |  |  |  |  |  | ΔTm PRMT6 (DSF) (PRMT6): 1.6 °C
